According to US10208056B2, “Condensed tricyclic compounds as protein kinase inhibitors” (FUNDACIÓN DEL SECTOR PÚBLICO ESTATAL CENTRO NACIONAL DE …, priority 2015, dated 2019):

Tests used:
intracellular CDK8 [1] = biological target: T1, intracellular CDK8 (Homo sapiens (Human), UniProt P49336); test: Cellular CDK8 inhibition assay, western blot P-STAT1 (S727) in IFN-γ treated SW620 cells; format: cell-based; details: SW620, IFNγ treated, semiquantitative; read-out: SW620 P-STAT1(S727) w IFNγ
Procedure: Compounds can be screened for their ability to inhibit intracellular CDK8 using a western blot assay to detect phosphorylation of the CDK8 substrate STAT1 (S727) in IFN-γ treated cells. SW620 cells are plated at 1*10^6 cells per well in 6-well plates (Solmeglas 13118) in RPMI media (Sigma-Aldrich R6504) supplemented with 10% foetal bovine serum (Sigma-Aldrich F7524), Penicillin/Streptomycin solution diluted 1:100 (Gibco 15070-063), and fungizone (Gibco, 15290-018), and allowed to adhere overnight at 37° C. in 5% CO2. Compounds are then added to the cell media from a final concentration of 10 μM in 10-fold serial dilutions and the cells are incubated at 37° C. in 5% CO2. After 1 hour, IFNγ (R&D systems Ref. RYD-285-IF-100) is added to a final concentration of […]. After 3 hours of treatment with IFNγ, the cells are washed in PBS, lysed adding 100 μl of protein lysis buffer (62.5 mM Tris pH 6.8 al 6.25%, 2% SDS y 10% glycerol) incubation 10 minutes at room temperature and heating at 95° C. 10 min. The protein content of the lysates is determined by DC protein assay (Biorad, Ref. 5000116). The proteins are resolved by SDS-PAGE and transferred to nitrocellulose membrane (VWR International eurolab, Ref. 732-4007). The membranes are incubated overnight at 4° C. with antibodies specific for total STAT1 (BD Transduction laboratory #610115), phosphoserine-727 STAT1 (Cell Signaling Ref. 9177) they are washed and then incubated with IRDye800 conjugated anti-mouse (Pierce/Cultek, 35521) and Alexa Fluor 680 goat anti-rabbit IgG secondary antibodies (Invitrogen, A21076). The bands are visualized and quantified using an Odyssey infrared imaging system (Li-Cor Biosciences). The percentage of phosphorylated STAT1 vs total STAT1 in cells treated with IFNγ is taken as hundred percent of phosphorylation. The percentage of STAT1 phosphorylation is finally plotted against concentration for each compound and EC50s for intracellular CDK8 inhibition are calculated using ActivityBase from IDBS.

CDK19/Cyclin C = CDK19/Cyclin C (Homo sapiens (Human), UniProt Q9BWU1); test: CDK19/Cyclin C binding assay (LanthaScreen Eu-Kinase Binding Assay); details: read-out: CDK19-CYCC IC50
Chain of CDK19/Cyclin C (Q9BWU1 whole entry): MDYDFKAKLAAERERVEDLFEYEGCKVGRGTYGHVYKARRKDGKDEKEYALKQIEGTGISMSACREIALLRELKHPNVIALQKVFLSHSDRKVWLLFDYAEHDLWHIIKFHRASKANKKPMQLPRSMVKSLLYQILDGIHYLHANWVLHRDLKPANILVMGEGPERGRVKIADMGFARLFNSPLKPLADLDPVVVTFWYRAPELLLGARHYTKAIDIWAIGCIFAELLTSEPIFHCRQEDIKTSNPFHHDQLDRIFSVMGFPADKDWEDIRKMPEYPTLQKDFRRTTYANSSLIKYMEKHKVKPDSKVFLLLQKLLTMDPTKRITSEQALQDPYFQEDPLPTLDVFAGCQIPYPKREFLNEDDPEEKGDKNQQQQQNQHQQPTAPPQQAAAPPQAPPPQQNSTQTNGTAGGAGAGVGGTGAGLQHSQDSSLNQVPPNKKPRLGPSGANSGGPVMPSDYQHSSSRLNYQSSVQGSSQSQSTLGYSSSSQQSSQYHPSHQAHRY
Chain of CDK19/Cyclin C (P24863 whole entry partner): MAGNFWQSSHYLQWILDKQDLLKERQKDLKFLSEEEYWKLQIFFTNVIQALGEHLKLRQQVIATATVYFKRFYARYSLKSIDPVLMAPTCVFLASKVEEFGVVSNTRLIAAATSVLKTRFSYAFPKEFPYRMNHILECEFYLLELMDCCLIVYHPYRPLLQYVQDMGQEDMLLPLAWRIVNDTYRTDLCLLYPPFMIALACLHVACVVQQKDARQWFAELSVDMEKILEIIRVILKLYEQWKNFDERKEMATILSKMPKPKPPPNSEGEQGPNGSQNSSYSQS
Method in brief: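 LanthaScreen TR-FRET tracer-displacement format with 2 nM Cdk19-Cyclin C, 20 nM tracer and 2 nM Eu-anti-GST antibody. The buffer was 50 mM HEPES pH 7.5, 10 mM MgCl2, 1 mM EGTA, 0.01% Brij-35, with 1% DMSO final. Compounds were tested as 1:3 serial dilutions and incubated for 60 min at 25 °C.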

Haspin kinase = Haspin kinase (Homo sapiens (Human), UniProt Q8TF76); test: Haspin kinase assay (ADP-Glo); format: biochemical; details: ATP 150 μM
Chain of Haspin kinase (Q8TF76 484-798): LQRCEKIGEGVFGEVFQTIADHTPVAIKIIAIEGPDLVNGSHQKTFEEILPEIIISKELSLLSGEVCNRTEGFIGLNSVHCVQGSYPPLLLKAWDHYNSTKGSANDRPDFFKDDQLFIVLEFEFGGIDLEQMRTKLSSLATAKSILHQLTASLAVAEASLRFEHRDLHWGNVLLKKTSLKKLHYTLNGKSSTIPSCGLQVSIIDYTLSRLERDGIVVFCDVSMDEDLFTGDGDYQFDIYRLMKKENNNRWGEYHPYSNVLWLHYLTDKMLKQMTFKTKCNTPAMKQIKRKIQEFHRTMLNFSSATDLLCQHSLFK
Method in brief: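 Compounds in 1:3 serial dilutions (1% DMSO final) were incubated 60 min at 30 °C with 20 nM recombinant GST-Haspin kinase domain and 150 μM ATP, without substrate, in pH 7.4 HEPES/MgCl2 buffer. ADP formed was read by luciferase luminescence and normalized to uninhibited enzyme to give % inhibition.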

SW620 cells = test: Colony formation assay; format: cell-based, human; details: SW620 cells treated 11 days
Procedure: The in vitro potency of the compounds was measured by colony formation assays. SW620 cells in logarithmic growth phase are plated at 800 cells per well in 6-well plates (Solmeglas 13118) in RPMI media (Sigma-Aldrich R6504) supplemented with 10% foetal bovine serum (Sigma-Aldrich F7524), Penicillin/Streptomycin solution diluted 1:100 (Gibco 15070-063), and fungizone (Gibco, 15290-018), and allowed to adhere overnight at 37° C. in 5% CO2. Compounds are then added to the cell media from a final concentration of 10 μM in 10-fold serial dilutions and the cells are incubated at 37° C. in 5% CO2. Every three days the medium is changed by fresh medium and compounds are added again. After 11 days, colonies are washed with PBS and fixed in 0.5% crystal violet (Sigma-Aldrich Ref. V5265), 6% glutaraldehide (Sigma-Aldrich Ref. G5882) for 30 minutes. After extensive washing, colonies are dissolved in 2 ml of 10% glacial acetic acid (Sigma-Aldrich Ref. 537020) and absorbance at 590 nm is measured in the Victor 1420 Multilabel Counter (Perkin Elmer). The absorbance in cells treated with DMSO is taken as hundred percent of proliferation. The percentage of proliferation is finally plotted against concentration for each compound and EC50s for colony formation inhibition are calculated using ActivityBase from IDBS.

intracellular HASPIN = intracellular HASPIN (Homo sapiens (Human), UniProt Q8TF76); test: Cellular HASPIN inhibition assay, western blot phospho H3T3 in synchronized SW620 cells; format: cell-based; details: semiquantitative, read-out: SW620 PH3(T3) in synchronized cells
Chain of intracellular HASPIN (Q8TF76 whole entry): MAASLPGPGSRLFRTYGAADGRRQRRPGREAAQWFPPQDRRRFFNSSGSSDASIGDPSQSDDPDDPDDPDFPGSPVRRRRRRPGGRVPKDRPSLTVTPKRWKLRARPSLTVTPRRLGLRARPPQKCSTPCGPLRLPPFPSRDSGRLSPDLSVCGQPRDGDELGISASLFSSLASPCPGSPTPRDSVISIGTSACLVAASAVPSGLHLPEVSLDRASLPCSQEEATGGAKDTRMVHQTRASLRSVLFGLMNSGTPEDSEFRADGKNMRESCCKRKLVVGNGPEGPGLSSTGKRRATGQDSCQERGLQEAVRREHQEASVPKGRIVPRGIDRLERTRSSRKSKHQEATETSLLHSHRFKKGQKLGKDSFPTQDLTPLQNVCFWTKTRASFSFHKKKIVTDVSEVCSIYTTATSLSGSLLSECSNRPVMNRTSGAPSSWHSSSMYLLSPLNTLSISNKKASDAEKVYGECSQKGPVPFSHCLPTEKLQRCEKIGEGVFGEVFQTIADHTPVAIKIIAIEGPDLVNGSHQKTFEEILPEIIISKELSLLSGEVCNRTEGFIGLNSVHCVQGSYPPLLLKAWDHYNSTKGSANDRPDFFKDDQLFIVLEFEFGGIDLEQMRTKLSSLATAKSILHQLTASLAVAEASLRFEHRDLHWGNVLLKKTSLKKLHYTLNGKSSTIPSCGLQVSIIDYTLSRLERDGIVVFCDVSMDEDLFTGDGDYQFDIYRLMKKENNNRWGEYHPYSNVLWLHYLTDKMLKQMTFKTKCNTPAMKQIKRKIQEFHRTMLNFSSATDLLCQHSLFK
Procedure: Compounds can be screened for their ability to inhibit intracellular HASPIN using a western blot assay to detect phosphorylation of the HASPIN substrate H3T3 in synchronized cells. SW620 cells are plated at 200000 cells per well in 6-well plates (Solmeglas 13118) in RPMI media (Sigma-Aldrich R6504) supplemented with 10% foetal bovine serum (Sigma-Aldrich F7524), Penicillin/Streptomycin solution diluted 1:100 (Gibco 15070-063), and fungizone (Gibco, 15290-018), and allowed to adhere overnight at 37° C. in 5% CO2. Cells are then treated 16 h hours with Nocadazole (Sigma-Aldrich M1404) at 250 ng/ml to arrest them in mitosis. Proteasoma inhibitor MG132 (Sigma-Aldrich C2211) is added to a final concentration of […] to keep cells arrested in mitosis. Compounds are then added to the cell media from a final concentration of 10 μM in 10-fold serial dilutions and the cells are incubated at 37° C. in 5% CO2. After 1 hour and 30 minutes of treatment with the compounds, the cells are washed in PBS, lysed adding 100 μl of protein lysis buffer (62.5 mM Tris pH 6.8 al 6.25%, 2% SDS y 10% glycerol) incubation 10 minutes at room temperature and heating at 95° C. 10 min. The protein content of the lysates is determined by DC protein assay (Biorad, Ref. 5000116). The proteins are resolved by SDS-PAGE and transferred to nitrocellulose membrane (VWR International eurolab, Ref. 732-4007). The membranes are incubated overnight at 4° C. with antibodies specific for total H3 (Millipore #07424), phosphothreonine-3 H3 (Cell Signaling Ref. 14269) they are washed and then incubated with IRDye800 conjugated anti-mouse (Pierce/Cultek, 35521) and Alexa Fluor 680 goat anti-rabbit IgG secondary antibodies (Invitrogen, A21076). The bands are visualized and quantified using an Odyssey infrared imaging system (Li-Cor Biosciences). The percentage of phosphorylated H3 vs total H3 in synchronized cells is taken as hundred percent of phosphorylation. The percentage of H3 phosphorylation is finally plotted against concentration for each compound and EC50s for intracellular HASPIN inhibition are calculated using ActivityBase from IDBS.

CDK8/Cyclin C = CDK8/Cyclin C (Homo sapiens (Human), UniProt P49336); test: CDK8/Cyclin C binding assay (LanthaScreen Eu-Kinase Binding Assay); details: binding assay
Chain of CDK8/Cyclin C (P49336 whole entry): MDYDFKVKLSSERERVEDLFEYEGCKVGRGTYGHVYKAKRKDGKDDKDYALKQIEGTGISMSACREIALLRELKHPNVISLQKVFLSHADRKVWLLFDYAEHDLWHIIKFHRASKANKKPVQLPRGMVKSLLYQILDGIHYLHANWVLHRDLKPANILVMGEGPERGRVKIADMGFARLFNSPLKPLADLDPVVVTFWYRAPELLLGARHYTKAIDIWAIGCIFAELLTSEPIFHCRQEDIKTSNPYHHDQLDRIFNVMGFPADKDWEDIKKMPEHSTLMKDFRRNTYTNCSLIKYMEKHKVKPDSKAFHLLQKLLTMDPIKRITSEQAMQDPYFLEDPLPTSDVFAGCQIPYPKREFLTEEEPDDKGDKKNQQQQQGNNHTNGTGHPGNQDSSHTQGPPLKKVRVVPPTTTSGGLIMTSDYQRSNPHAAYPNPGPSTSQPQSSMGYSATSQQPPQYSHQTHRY
Chain of CDK8/Cyclin C (P24863 whole entry partner): as the sequence (P24863 whole entry partner) above
Procedure: The enzyme has been purchase from Invitrogen (PV4402) as a dimer of full-length His-tagged recombinant human proteins.
Assays were performed in 384-well plates. The final read out was generated using an EnVision plate reader (Perkin-Elmer).

HCT116 = test: Combination assay, HCT116; format: cell-based; details: Homo sapiens, HCT-116; HCT116, chemotherapeutic alone; read-out: Chemo GI50
Procedure: (§1) The combination index (CI) of combinations of certain example compounds and various chemotherapeutic agents in the CellTitetI-Glo® in vitro cell proliferation assays may be tested. A combination index score is calculated by the Chou and Talalay method (CalcuSyn software, Biosoft). The strength of synergy is scored using the ranking system Chou and Talalay: CI less than 0.8 indicates synergy, CI between 0.8 and 1.2 indicates additivity and CI greater than 1.2 indicates antagonism.
(§2) The EC50 values of representative combinations are also calculated. The individually measured EC50 values of the chemotherapeutic agent and the example compounds are compared to the EC50 value of the combination. The cell lines are characterised by tumor type. Combination assays are performed as described in: “Pim 1 kinase inhibitor ETP-45299 suppresses cellular proliferation and synergizes with PI3K inhibition”. Blanco-Aparicio, Carmen; Collazo, Ana Maria Garcia; Oyarzabal, Julen; Leal, Juan F.; Albaran, Maria Isabel; Lima, Francisco Ramos; Pequeno, Belen; Ajenjo, Nuria; Becerra, Mercedes; Alfonso, Patricia; Reymundo, Maria Isabel; Palacios, Irene; Mateos, Genoveva; Quinones, Helena; Corrionero, Ana; Carnero, Amancio; Pevarello, Paolo; Lopez, Ana Rodriguez; Fominaya, Jesus; Pastor, Joaquin; Bischoff, James R. Cancer Letters (Shannon, Ireland) 2011, 300(2), 145-153

SW620 [2] = test: Combination assay, SW620; format: cell-based, human; details: Homo sapiens, SW-620; SW620, chemotherapeutic alone; read-out: Chemo GI50
Procedure: as §1, §2

SKMEL19 = test: Combination assay, SKMEL19; format: cell-based; details: Homo sapiens, SK-MEL19; SKMEL19, chemotherapeutic alone; read-out: Chemo GI50
Procedure: as §1, §2

BXPC-3 = test: Combination assay, BXPC-3; format: cell-based; details: Homo sapiens; BXPC-3, chemotherapeutic alone; read-out: Chemo GI50
Procedure: as §1, §2

DU145 = test: Combination assay, DU145; format: cell-based; details: Homo sapiens, DU-145; DU145, chemotherapeutic alone; read-out: Chemo GI50
Procedure: as §1
The EC50 values of representative combinations are also calculated. The individually measured EC50 values of the chemotherapeutic agent and the example compounds are compared to the EC50 value of the combination. The cell lines are characterised by tumor type. […] Blanco-Aparicio, Carmen; Collazo, Ana Maria Garcia; Oyarzabal, Julen; Leal, Juan F.; Albaran, Maria Isabel; Lima, Francisco Ramos; Pequeno, Belen; Ajenjo, Nuria; Becerra, Mercedes; Alfonso, Patricia; Reymundo, Maria Isabel; Palacios, Irene; Mateos, Genoveva; Quinones, Helena; Corrionero, Ana; Carnero, Amancio; Pevarello, Paolo; Lopez, Ana Rodriguez; Fominaya, Jesus; Pastor, Joaquin; Bischoff, James R. Cancer Letters (Shannon, Ireland) 2011, 300(2), 145-153

MDAMB231 = test: Combination assay, MDAMB231; format: cell-based; details: Homo sapiens, MDA-MB-231; MDAMB231, chemotherapeutic alone; read-out: Chemo GI50
Procedure: as §1, §2

A549 = test: Combination assay, A549; format: cell-based; details: Homo sapiens; A549, chemotherapeutic alone; read-out: Chemo GI50
Procedure: as §1, §2

SW620 [3] = test: In vitro cell proliferation assay (CellTiter-Glo), SW620; format: cell-based, human; details: Homo sapiens, SW-620; growth inhibition, semiquantitative; read-out: GI50 SW620
Molm13 = test: In vitro cell proliferation assay (CellTiter-Glo), Molm13; format: cell-based; details: Homo sapiens, MOLM-13; growth inhibition, semiquantitative; read-out: GI50 Molm13
intracellular CDK8 [4] = biological target: T1, intracellular CDK8; test: Endogenous phosphoSTAT1 inhibition in SW620 cells growing in 10% FBS; format: cell-based; details: semiquantitative, read-out: SW620 P-STAT1(S727)
Method in brief: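 SW620 cells in 10% FBS treated 8 h with compound, then lysed and phospho-STAT1 measured relative to total STAT1.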

MV4:11 = test: In vitro cell proliferation assay (CellTiter-Glo), MV4:11; format: cell-based; details: Homo sapiens, MV4-11; growth inhibition, semiquantitative; read-out: GI50 MV4:11
MDA-MB-231 = test: In vitro cell proliferation assay (CellTiter-Glo), MDA-MB-231; format: cell-based; details: Homo sapiens, MDA-MB-231; growth inhibition, semiquantitative; read-out: GI50 MDA-MB-231
[5] = system: H3T3ph in tumoral cells from colon, breast and cervix; details: dose dependent; cited from earlier work

T1 sequence (P49336 whole entry): as the sequence (P49336 whole entry) above
T1 sequence (P24863 whole entry partner): as the sequence (P24863 whole entry partner) above
T1 sequence (Q93074 whole entry partner): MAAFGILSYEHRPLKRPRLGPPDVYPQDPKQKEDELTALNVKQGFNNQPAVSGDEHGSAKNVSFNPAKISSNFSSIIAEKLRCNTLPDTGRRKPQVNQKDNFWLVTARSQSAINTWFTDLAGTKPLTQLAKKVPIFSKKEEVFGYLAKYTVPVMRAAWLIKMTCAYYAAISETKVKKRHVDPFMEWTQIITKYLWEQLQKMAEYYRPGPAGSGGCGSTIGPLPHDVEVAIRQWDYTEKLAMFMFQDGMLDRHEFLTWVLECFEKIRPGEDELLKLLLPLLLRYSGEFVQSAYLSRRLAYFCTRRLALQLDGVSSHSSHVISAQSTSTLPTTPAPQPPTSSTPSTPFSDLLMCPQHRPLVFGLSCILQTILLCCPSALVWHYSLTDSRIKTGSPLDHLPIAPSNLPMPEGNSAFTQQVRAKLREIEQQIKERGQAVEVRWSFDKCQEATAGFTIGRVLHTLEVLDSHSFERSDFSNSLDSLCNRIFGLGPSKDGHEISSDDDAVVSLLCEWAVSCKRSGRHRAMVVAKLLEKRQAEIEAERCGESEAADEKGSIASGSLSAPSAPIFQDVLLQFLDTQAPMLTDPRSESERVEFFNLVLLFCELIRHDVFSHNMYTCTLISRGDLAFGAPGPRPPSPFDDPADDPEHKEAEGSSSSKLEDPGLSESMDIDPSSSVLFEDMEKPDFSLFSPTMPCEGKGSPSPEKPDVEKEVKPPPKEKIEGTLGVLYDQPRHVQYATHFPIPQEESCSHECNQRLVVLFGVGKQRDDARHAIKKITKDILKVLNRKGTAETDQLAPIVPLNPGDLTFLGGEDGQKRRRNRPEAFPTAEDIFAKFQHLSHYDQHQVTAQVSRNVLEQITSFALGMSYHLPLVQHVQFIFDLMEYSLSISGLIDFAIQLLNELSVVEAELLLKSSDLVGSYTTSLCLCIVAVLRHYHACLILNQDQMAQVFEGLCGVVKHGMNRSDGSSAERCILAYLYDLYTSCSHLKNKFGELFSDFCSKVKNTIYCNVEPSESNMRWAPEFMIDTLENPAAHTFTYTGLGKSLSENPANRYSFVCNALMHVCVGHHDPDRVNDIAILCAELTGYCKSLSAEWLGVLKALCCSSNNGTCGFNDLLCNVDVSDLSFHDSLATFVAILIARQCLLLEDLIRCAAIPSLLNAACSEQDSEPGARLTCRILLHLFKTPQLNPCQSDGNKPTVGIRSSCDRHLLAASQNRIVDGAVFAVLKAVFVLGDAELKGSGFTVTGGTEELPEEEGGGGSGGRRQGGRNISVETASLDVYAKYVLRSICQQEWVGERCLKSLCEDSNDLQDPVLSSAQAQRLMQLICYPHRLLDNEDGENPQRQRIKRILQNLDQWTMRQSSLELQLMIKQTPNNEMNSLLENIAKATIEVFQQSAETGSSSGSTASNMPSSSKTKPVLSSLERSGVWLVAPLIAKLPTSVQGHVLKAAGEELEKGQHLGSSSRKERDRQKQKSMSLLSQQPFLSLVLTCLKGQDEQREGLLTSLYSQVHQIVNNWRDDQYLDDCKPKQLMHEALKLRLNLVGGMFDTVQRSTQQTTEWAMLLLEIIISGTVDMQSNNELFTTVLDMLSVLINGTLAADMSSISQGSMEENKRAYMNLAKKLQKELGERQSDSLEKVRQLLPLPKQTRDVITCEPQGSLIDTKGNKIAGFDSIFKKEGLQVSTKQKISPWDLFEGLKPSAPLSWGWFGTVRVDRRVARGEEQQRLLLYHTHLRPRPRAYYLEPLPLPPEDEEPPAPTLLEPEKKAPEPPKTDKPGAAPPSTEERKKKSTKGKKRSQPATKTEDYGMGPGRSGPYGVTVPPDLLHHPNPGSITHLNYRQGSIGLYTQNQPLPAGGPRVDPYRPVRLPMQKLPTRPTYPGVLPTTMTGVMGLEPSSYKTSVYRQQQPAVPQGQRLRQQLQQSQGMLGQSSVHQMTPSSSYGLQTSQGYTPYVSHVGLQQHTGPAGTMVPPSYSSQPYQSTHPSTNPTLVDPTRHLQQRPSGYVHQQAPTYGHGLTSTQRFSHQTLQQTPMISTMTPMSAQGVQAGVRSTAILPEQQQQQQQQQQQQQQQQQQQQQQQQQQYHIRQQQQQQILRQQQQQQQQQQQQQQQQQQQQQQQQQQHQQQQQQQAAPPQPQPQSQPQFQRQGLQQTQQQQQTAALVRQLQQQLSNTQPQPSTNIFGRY

EC50 (intracellular CDK8 [1]) [nM] | IC50 (CDK19/Cyclin C) [nM] | IC50 (CDK8/Cyclin C) [nM] | GI50 (SW620 [2]) [nM] | GI50 (SKMEL19) [nM] | GI50 (BXPC-3) [nM] | Structure (SMILES) | effect in colony forming assay (SW620 cells) | also measured
< 500 | 97.3 | 139 |  |  |  | COc1ccccc1-c1c2c(n(CCF)c1C(N)=O)-c1ccncc1OC2(C)C [Example 73] | dose-dependent effect | IC50 (Haspin kinase): 1120 nM; EC50 (SW620 cells; Homo sapiens, SW-620, 264 h, read-out: mean EC50, colony forming assay): 5430 ± 297 nM; EC50 (intracellular HASPIN): 500 to 10000 nM
 |  |  | 250 | 250 | 62 | CN(NC(=O)CC(=O)NN(C)C(=S)c1ccccc1)C(=S)c1ccccc1 [Elesclomol, elesclomol, reference compound] |  | GI50 (MDAMB231): 250 nM; GI50 (A549): 250 nM
< 500 | 7.14 | 8.5 |  |  |  | NC(=O)c1cc2c([nH]1)-c1ccncc1O[C@H]2C1CCCCC1 (single isomer, unassigned) [Example 70] | dose-dependent effect | GI50 (SW620 [3]): 1000 to 10000 nM; GI50 (Molm13): 1000 to 10000 nM; EC50 (intracellular CDK8 [4]): < 500 nM; GI50 (MV4:11): < 1000 nM; GI50 (MDA-MB-231): 10000 to 100000 nM

The remaining lines, values behind:

Structure (SMILES) | EC50 (intracellular CDK8 [1]) [nM] | IC50 (CDK19/Cyclin C) [nM] | IC50 (CDK8/Cyclin C) [nM] | GI50 (SW620 [2]) [nM] | GI50 (SKMEL19) [nM] | GI50 (BXPC-3) [nM] | effect in colony forming assay (SW620 cells) | also measured
C[C@@H](Oc1cc(-c2cnn(C3CCNCC3)c2)cnc1N)c1c(Cl)ccc(F)c1Cl [Crizotinib, crizotinib, reference compound] |  |  |  | 1000 | 5000 | 5000 |  | GI50 (HCT116): 5000 nM; GI50 (DU145): 20000 nM
CCCNc1ccc2ncc(-c3ccc4[nH]ncc4c3)n2n1 [CHR-6494] |  |  |  |  |  |  |  | reduction of H3T3ph [5]: reduce H3T3ph
